Data as given in US5688773A, “Method of selectively destroying neoplastic cells” (priority 1994, dated 1997).
“And” between values parts separate entries of the source, which are not always exact repeats. Identical values can stand only once.

How the values were obtained:
[1] = test system: C6 glioma plus R450-2 cells; experiment: Brain tumor model, fibroblast graft then intrathecal/intratumoral CPA; format: in vivo, athymic mice
Protocol: (§1) For intracerebral injections, mice were anesthetized with an intraperitoneal injection of Ketamin (100 mg per kg body weight) (Parke Davis, NJ) and Xylazine (20 mg per kg body weight) (Mobay Corp., KS). Surgical procedures were performed in a sterile fashion. After immobilizing the rodent in stereotactic apparatus (Kopf), a small incision was made in the skin overlying the skull. C6 glioma cells (10^3 cells in 2 μl) were stereotactically inoculated approximately 0.5 mm frontal and 0.5 mm right lateral to the bregma using a Hamilton syringe. The inoculation period was 5 minutes, with 2 minutes allowed for needle retraction. Three days later, the same burrhole was employed for the stereotactic grafting of 5×10^6 CRELacZ cells (cell line kindly provided by Dr. R. Mulligan, MIT) or 5×10^6 R450-2 cells in 25 μl of DMEM. Four, eight, and eleven days after this last injection, CPA (0.3 mg in 5 μl) was administered stereotactically, through the same skull opening, into the tumor and meningeal space of mice from both CRELacZ and R450-2 groups. Injections were carried out stereotactically over a period of ten minutes, with five minutes allowed for needle retraction. Animals were sacrificed, ten days after injection of the last dose of prodrug, by perfusing through the left ventricle approximately 3-5 mL of 100 mM sodium phosphate in 0.9% sodium chloride, pH 7.3, followed by 4% paraformaldehyde in 100 mM sodium phosphate, pH 7.3. Brains were carefully dissected from the skull and jaws of the animals, prior to placement overnight in 4% paraformaldehyde in 100 mM sodium phosphate, pH 7.3. For cryopreservation, brains were placed in 20% glycerol/10% dimethylsulfoxide in 100 mM sodium phosphate, pH 7.3, and then cut in 50 micron sections with a sledge microtome. Every sixth section was mounted onto gelatin-coated slides and stained with cresyl violet. To calculate brain tumor volumes, a computerized-image analyzer was used to scan tumor areas on each section. This analysis was performed in a blind fashion. Manual contouring was performed to distinguish tumor from normal brain cysts, or processing artifacts. Tumor volumes were obtained by multiplying the average tumor area from all sections in a brain by the distance (0.3 mm) between and including each section.

[2] = test system: C6 glioma plus CRELacZ cells; experiment: as above; format: in vivo, athymic mice
Protocol: as §1

C6VIK cells = experiment: Ganciclovir sensitivity in vivo, subrenal capsule tumors; design: species or system rat; details: 20 mg/kg intraperitoneally daily; reassessed over a 16-day period; two animals
Source text: In this study, rat C6 glioma cells were used as a model primary brain tumor type. C6 cells rapidly form a non-encapsulated, non-metastatic tumor after injection into the adult rat CNS. Further, derivative cell lines are available, which lack endogenous TK activity (C6-BUI) or bear the lacZ gene (C6-BAG), which are useful experimentally. A retroviral vector was generated in which the HSV-1-TK gene is regulated by the strong, constitutive retrovirus LTR promoter. C6-BUI cells were infected with this vector and selected for TK activity by growth in HAT medium. Parental and infected cells were tested for their dose-dependent sensitivity to ganciclovir in culture and in vivo following inoculation into the rat subrenal capsule.
Ganciclovir Sensitivity in vivo: Nine rats were implanted in the subrenal capsule with C6VIK cells. Four survived the procedure for further study. Tumors were measured 5 days after implantation. Two animals were treated with ganciclovir (20 mg/kg intraperitoneally daily) and two with saline daily. Tumor size was reassessed over a 16-day period. The two control tumors grew four- to twelve-fold.
This model overcomes the problem of not being able to directly observe the size of an intracerebral tumor implant and the concerns about delivery of ganciclovir through an intact blood-brain barrier.

[3] = CPA 0.3 mg on days 4, 8, 11 after graft, sacrifice ten days after last dose
[4] = individual animals, after cyclophosphamide administration

Compound | animals with a small residual meningeal mass ([1]; CPA 0.3 mg on days 4, 8, 11 after graft) | animals with no evidence of meningeal tumor [1, 3] | brains with extensive tumor necrosis ([1]; histopathology of six brains) | Volumes of parenchymal brain tumors [1, 4] | brain tumor volume as fraction of average volume in lacZ-producer controls ([1]; three of six animals, listed as CPA) | animals with extensive and friable meningeal tumor [2, 3] | Tumor necrosis of parenchymal tumors ([2]; histopathology of six brains) | Volumes of parenchymal brain tumors [2, 4] | Tumor size after treatment (C6VIK cells)
O=P1(N(CCCl)CCCl)NCCCO1 (stereo not drawn) [cyclophosphamide] | 1/8 | 7/8 | 3/6 | 3.2 mm^3 and 14.2 mm^3 and 28.4 mm^3 and 87.4 mm^3 and 105.3 mm^3 and 171.4 mm^3 | approximately 1/20 and 1/5 and 1/2 | 8/8 | essentially no tumor necrosis | 47.5 mm^3 and 51.5 mm^3 and 54.7 mm^3 and 62.4 mm^3 and 72.6 mm^3 and 85.1 mm^3 | 
Nc1nc(O)c2ncn(COC(CO)CO)c2n1 [ganciclovir] |  |  |  |  |  |  |  |  | smaller after the treatment than before
